Reference: patent publication US20260071117A1, “FUNABLE FLUORESCENT COMPOUNDS AND USES THEREOF” (Arizona Board of Regents on Behalf of the University of …, priority 2021, published 2026)
“And” between values parts separate entries of the source, which are not always exact repeats. Equal entries are not always repeated.

Assay: Absorbance and fluorescence measurements (excitation maximum, emission maximum, quantum yield vs coumarin 151)
Type: physicochemical
Parameters: key to Quantum Yield: fraction relative to coumarin 151 in ethanol standard
Settings: for λex: absorbance/excitation maximum; for λex / Quantum Yield / λem: measurements run with methanol; for Quantum Yield: coumarin 151 in ethanol as standard; for Quantum Yield / λem: 2.5 mm slit width; for λem: emission maximum
Source text: All reagents and solvents were acquired from commercially available suppliers and used without further purification. Methanol(dried on molecular sieves-Acroseal) was obtained from Acros. […] 1H and 13C NMR spectra were obtained on a Bruker NMR spectrometer at 500/400 and 125/100 MHz respectively. The data is reported as follows: chemical shift in ppm (δ), multiplicity (s=singlet, d=doublet, dd=doublet of doublets, t=triplet, dt=doublet of triplets, td=triplet of doublets, q=quartet, p=pentet, m=multiplet). Coupling constants are reported in Hertz (Hz) and were automatically generated using known NMR analyzer software (MestReNova), these were then subsequently curated. High-resolution mass spectra were obtained using the positive ESI method for all the compounds, obtained in an Ion Cyclotron Resonance (ICR) spectrometer. Absorbance spectra were obtained using an Agilent 8453 UV-visible spectroscopy system. Fluorescence was measured on a Varian (Agilent) Cary Eclipse Fluorimeter. Quantum yield measurements were calculated and reported using coumarin 151 in ethanol as a standard.^1 Fluorescence scans were obtained using a 2.5 mm slit width unless otherwise noted.
The fluorescence was also measured in different solvents to examine the solvent effects.

| λex | Quantum Yield | λem | fluorescence (observation in words) | Compound |
| --- | --- | --- | --- | --- |
| 370 nm |  |  | quenched the fluorescence fully | COc1cc(OC)c2c(-c3ccc([N+](=O)[O-])cc3)nc3c(nc4ccccn43)c2c1 [Compound 18b, 2,4-dimethoxy-5-(4-nitrophenyl)pyrido[2′,1′:2,3]imidazo[4,5-c]isoquinoline] |
| 400 nm |  |  | quenched fluorescence altogether | COC(=O)c1cccc2nc(-c3cc(OC)cc(OC)c3)c(N)n12 [Compound 10x, methyl 3-amino-2-(3,5-dimethoxyphenyl)imidazo[1,2-a]pyridine-5-carboxylate] |
| 566 nm | 0.45 | 653 nm |  | CCN(CC)c1ccc(/C=C/c2nc3nc(-c4ccc(N(CC)CC)cc4)c(NC(C)(C)C)n3nc2C)cc1 [Compound 49, (E)-N-(tert-butyl)-6-(4-(diethylamino)phenyl)-3-(4-(diethylamino)styryl)-2-methylimidazo[1,2-b][1,2,4]triazin-7-amine] |
| 343 nm | 0.02 | 473 nm |  | COC(=O)c1ccc2nc(-c3cc(OC)cc(OC)c3)c(N)n2c1 [Compound 10w, methyl 3-amino-2-(3,5-dimethoxyphenyl)imidazo[1,2-a]pyridine-6-carboxylate] |
| 461 nm | 0.19 | 638 nm |  | COc1cc(/C=C/c2nc3nc(-c4cc(OC)cc(OC)c4)c(NC(C)(C)C)n3nc2C)cc(OC)c1 [Compound 46, (E)-N-(tert-butyl)-6-(3,5-dimethoxyphenyl)-3-(3,5-dimethoxystyryl)-2-methylimidazo[1,2-b][1,2,4]triazin-7-amine] |
| 366 nm | 0.34 | 418 nm |  | COc1cccc(-c2nc3c(nc4ccccn43)c3c(OC)c(OC)ccc23)c1OC [Compound 16b, 5-(2,3-dimethoxyphenyl)-1,2-dimethoxypyrido[2′,1′:2,3]imidazo[4,5-c]isoquinoline] |
| 510 nm | 0.04 | 601 nm |  | Cc1nn2c(/N=C/c3ccccc3)c(-c3ccccc3)nc2nc1/C=C/c1ccccc1 [Compound 58, (E)-N-(2-methyl-6-phenyl-3-((E)-styryl)imidazo[1,2-b][1,2,4]triazin-7-yl)-1-phenylmethanimine] |
| 295 nm | 0.07 | 488 nm |  | COc1cc(-c2nc3c(nc4cccnn43)c3cc(OC)c(OC)c(OC)c23)cc(OC)c1OC [Compound 16f, 2,3,4-trimethoxy-5-(3,4,5-trimethoxyphenyl)pyridazino[6′,1′:2,3]imidazo[4,5-c]isoquinoline] |
| 513 nm | 0.33 | 647 nm |  | Cc1nn2c(NC(C)(C)C)c(-c3cccs3)nc2nc1/C=C/c1cccs1 [Compound 47, (E)-N-(tert-butyl)-2-methyl-6-(thiophen-2-yl)-3-(2-(thiophen-2-yl)vinyl)imidazo[1,2-b][1,2,4]triazin-7-amine] |
|  |  |  | quenched fluorescence | COc1cccc(/C=N/c2c(-c3cccc(OC)c3)c(C#N)c3ccccn23)c1 [Compound 14a, (E)-3-((3-methoxybenzylidene)amino)-2-(3-methoxyphenyl)indolizine-1-carbonitrile] |
| 265 nm | 0.002 | 553 nm |  | COc1cc(-c2nc3c(nc4cccc(Br)n43)c3cc(OC)c(OC)c(OC)c23)cc(OC)c1OC [Compound 16h, 8-bromo-2,3,4-trimethoxy-5-(3,4,5-trimethoxyphenyl)pyrido[2′,1′:2,3]imidazo[4,5-c]isoquinoline] |
| 533 nm | 0.10 | 611 nm |  | COc1cc(/C=C/c2nc3nc(-c4cc(OC)c(OC)c(OC)c4)c(/N=C/c4cc(OC)c(OC)c(OC)c4)n3nc2C)cc(OC)c1OC [Compound 64, (E)-N-(2-methyl-6-(3,4,5-trimethoxyphenyl)-3-((E)-3,4,5-trimethoxystyryl)imidazo[1,2-b][1,2,4]triazin-7-yl)-1-(3,4,5-trimethoxyphenyl)methanimine] |
| 506 nm | 0.28 | 633 nm |  | COc1cc(/C=C/c2nc3nc(-c4cc(OC)c(OC)c(OC)c4)c(NC(C)(C)C)n3nc2C)cc(OC)c1OC [Compound 48, (E)-N-(tert-butyl)-2-methyl-6-(3,4,5-trimethoxyphenyl)-3-(3,4,5-trimethoxystyryl)imidazo[1,2-b][1,2,4]triazin-7-amine] |

The next lines start with the compound.

| Compound | λex | Quantum Yield | λem | fluorescence (observation in words) |
| --- | --- | --- | --- | --- |
| (E)-2,3,4-trimethoxy-9-methyl-5-(3,4,5-trimethoxyphenyl)-10-(3,4,5-trimethoxystyryl)-[1,2,4]triazino[3′, 2′: 2,3]imidazo[4,5-c]isoquinolines [Compound 80] | 499 nm | 0.25 | 604 nm |  |
| 2-(3,4,5-trimethoxyphenyl)imidazo[1,2-a]pyridin-3-amine [Compound 10a] | 343 nm | 0.36 | 474 nm |  |
| COC(=O)c1ccn2c(N)c(-c3ccc(OC)cc3OC)nc2c1 [Compound 10am, methyl 3-amino-2-(2,4-dimethoxyphenyl)imidazo[1,2-a]pyridine-7-carboxylate] | 402 nm | 0.49 | 519 nm |  |
| Nc1c(-c2ccccn2)nc2ccccn12 [Compound 10h, 2-(pyridin-2-yl)imidazo[1,2-a]pyridin-3-amine] | 370 nm |  |  |  |
| Nc1c(-c2ccccc2)nc2ccccn12 [Compound 10f, 2-phenylimidazo[1,2-a]pyridin-3-amine] | 339 nm | 0.30 | 473 nm |  |
| Nc1c(-c2cccc([N+](=O)[O-])c2)nc2ccccn12 [Compound 10j, 2-(3-nitrophenyl)imidazo[1,2-a]pyridin-3-amine] | 350 nm |  |  |  |
| COc1ccc(-c2nc3cccnn3c2N)cc1 [Compound 10ac, 2-(4-methoxyphenyl)imidazo[1,2-b]pyridazin-3-amine] | 435 nm | 0.03 | 543 nm |  |
| COc1cc(-c2nc3cc(-c4ccncc4)ccn3c2N)cc(OC)c1OC [Compound 10ax, 7-(pyridin-4-yl)-2-(3,4,5-trimethoxyphenyl)imidazo[1,2-a]pyridin-3-amine] | 392 nm | 0.23 | 545 nm |  |
| Nc1c(-c2ccccc2[N+](=O)[O-])nc2ccccn12 [Compound 10i, 2-(2-nitrophenyl)imidazo[1,2-a]pyridin-3-amine] | 330 nm |  |  |  |
| COc1ccn2c(N)c(-c3ccc([N+](=O)[O-])cc3)nc2c1 [Compound 10au, 7-methoxy-2-(4-nitrophenyl)imidazo[1,2-a]pyridin-3-amine] | 360 nm |  |  |  |
| COC(=O)c1ccn2c(N)c(-c3ccc4ccccc4c3)nc2c1 [Compound 10ai, methyl 3-amino-2-(naphthalen-2-yl)imidazo[1,2-a]pyridine-7-carboxylate] | 434 nm | 0.47 | 512 nm |  |
| COc1cc(OC)cc(-c2nc3ccccn3c2N)c1 [Compound 10d, 2-(3,5-dimethoxyphenyl)imidazo[1,2-a]pyridin-3-amine] | 344 nm | 0.35 | 473 nm and 478 nm |  |
| Cc1nn2c(NC(C)(C)C)c(-c3ccc([N+](=O)[O-])cc3)nc2nc1/C=C/c1ccc([N+](=O)[O-])cc1 [Compound 45, (E)-N-(tert-butyl)-2-methyl-6-(4-nitrophenyl)-3-(4-nitrostyryl)imidazo[1,2-b][1,2,4]triazin-7-amine] | 505 nm | 0.11 | 655 nm |  |
| COc1ccc(-c2nc3cccnn3c2N)c(OC)c1 [Compound 10ae, 2-(2,4-dimethoxyphenyl)imidazo[1,2-b]pyridazin-3-amine] | 433 nm | 0.02 | 555 nm |  |
| COC(=O)c1ccn2c(N)c(-c3ccc(N(c4ccccc4)c4ccccc4)cc3)nc2c1 [Compound 10an, methyl 3-amino-2-(4-(diphenylamino)phenyl)imidazo[1,2-a]pyridine-7-carboxylate] | 430 nm | 0.44 | 529 nm |  |
| Nc1c(-c2ccc3ccccc3c2)nc2ccccn12 [Compound 10e, 2-(naphthalen-2-yl)imidazo[1,2-a]pyridin-3-amine] | 345 nm | 0.28 | 475 nm |  |
| COC(=O)c1ccn2c(N)c(-c3ccc(OC)cc3)nc2c1 [Compound 10ak, methyl 3-amino-2-(4-methoxyphenyl)imidazo[1,2-a]pyridine-7-carboxylate] | 394 nm | 0.40 | 510 nm |  |
| Nc1c(-c2ccc(Oc3ccccc3)cc2)nc2ccccn12 [Compound 10m, 2-(4-phenoxyphenyl)imidazo[1,2-a]pyridin-3-amine] | 343 nm | 0.40 | 474 nm |  |
| Nc1c(-c2ccc(N(c3ccccc3)c3ccccc3)cc2)nc2ccccn12 [Compound 10p, 2-(4-(diphenylamino)phenyl)imidazo[1,2-a]pyridin-3-amine] | 353 nm | 0.34 | 471 nm |  |
